Measured values: patent US12509447B2, “Small molecule compound” (Technoderma Medicines Pte Ltd, priority 2019, dated 2025)

Experiments:
Format in all cases: biochemical
Tyk2 = Tyk2 (Homo sapiens, UniProt P29597); test: Inhibition of JAK kinase activity, EZ Reader microfluidic phosphorylation of peptide substrate: Tyk2; conditions: Tyk2 kinase 1 nM; highest final concentration 10 μM, 1:3 serial dilution, 8 points, duplicates
Summary of the method: (§1)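 Microfluidic mobility-shift assay reading fluorescent peptide substrate and product; kinases at 20 nM (JAK1) or 1 nM (JAK2, JAK3, Tyk2) in pH 7.4 HEPES with 10 mM MgCl2, run at room temperature to 20-30% conversion, then stopped with EDTA. Compounds tested from 10 μM top, 1:3 over 8 points in duplicate; IC50 fitted from % conversion.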

JAK2 = JAK2 (Homo sapiens, UniProt O60674); test: Inhibition of JAK kinase activity, EZ Reader microfluidic phosphorylation of peptide substrate: JAK2; conditions: JAK2 kinase 1 nM; highest final concentration 10 μM, 1:3 serial dilution, 8 points, duplicates
Summary of the method: as §1

JAK3 = biological target: T1, JAK3 (Homo sapiens, UniProt P52333); test: Inhibition of JAK kinase activity, EZ Reader microfluidic phosphorylation of peptide substrate: JAK3; conditions: JAK3 kinase 1 nM; highest final concentration 10 μM, 1:3 serial dilution, 8 points, duplicates
T1 sequence (P52333 1-1124): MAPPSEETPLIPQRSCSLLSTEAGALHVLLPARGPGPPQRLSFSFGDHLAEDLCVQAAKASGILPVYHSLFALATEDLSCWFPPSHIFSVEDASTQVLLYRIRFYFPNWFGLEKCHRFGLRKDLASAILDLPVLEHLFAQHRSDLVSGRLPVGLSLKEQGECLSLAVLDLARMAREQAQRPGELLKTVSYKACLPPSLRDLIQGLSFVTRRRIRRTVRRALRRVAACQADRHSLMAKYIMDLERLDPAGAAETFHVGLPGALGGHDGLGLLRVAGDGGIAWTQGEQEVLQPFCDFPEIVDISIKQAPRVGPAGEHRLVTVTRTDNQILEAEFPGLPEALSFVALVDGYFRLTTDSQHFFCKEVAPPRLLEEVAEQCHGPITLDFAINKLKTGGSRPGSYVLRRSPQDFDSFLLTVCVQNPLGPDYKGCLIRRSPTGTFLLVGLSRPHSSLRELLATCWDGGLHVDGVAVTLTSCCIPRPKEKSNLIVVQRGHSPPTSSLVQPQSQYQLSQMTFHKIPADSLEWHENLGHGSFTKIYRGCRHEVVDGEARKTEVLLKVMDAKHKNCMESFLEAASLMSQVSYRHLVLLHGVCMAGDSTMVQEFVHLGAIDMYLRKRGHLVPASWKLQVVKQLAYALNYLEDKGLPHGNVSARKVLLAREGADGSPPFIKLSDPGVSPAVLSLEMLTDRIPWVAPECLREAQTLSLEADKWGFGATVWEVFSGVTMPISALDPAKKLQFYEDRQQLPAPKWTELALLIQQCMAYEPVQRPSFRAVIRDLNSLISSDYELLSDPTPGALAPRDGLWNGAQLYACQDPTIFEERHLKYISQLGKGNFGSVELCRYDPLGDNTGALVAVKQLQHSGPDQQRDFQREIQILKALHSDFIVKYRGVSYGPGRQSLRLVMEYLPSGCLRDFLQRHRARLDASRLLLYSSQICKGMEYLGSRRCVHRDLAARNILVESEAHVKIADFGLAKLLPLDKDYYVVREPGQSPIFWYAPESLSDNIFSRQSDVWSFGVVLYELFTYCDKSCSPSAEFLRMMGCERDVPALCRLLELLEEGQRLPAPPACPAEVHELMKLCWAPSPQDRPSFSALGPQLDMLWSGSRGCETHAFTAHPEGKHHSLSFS
Summary of the method: as §1

JAK1 = JAK1 (Homo sapiens, UniProt P23458); test: Inhibition of JAK kinase activity, EZ Reader microfluidic phosphorylation of peptide substrate: JAK1; conditions: JAK1 kinase 20 nM; highest final concentration 10 μM, 1:3 serial dilution, 8 points, duplicates
Summary of the method: as §1

Chain of Tyk2 (P29597 whole entry): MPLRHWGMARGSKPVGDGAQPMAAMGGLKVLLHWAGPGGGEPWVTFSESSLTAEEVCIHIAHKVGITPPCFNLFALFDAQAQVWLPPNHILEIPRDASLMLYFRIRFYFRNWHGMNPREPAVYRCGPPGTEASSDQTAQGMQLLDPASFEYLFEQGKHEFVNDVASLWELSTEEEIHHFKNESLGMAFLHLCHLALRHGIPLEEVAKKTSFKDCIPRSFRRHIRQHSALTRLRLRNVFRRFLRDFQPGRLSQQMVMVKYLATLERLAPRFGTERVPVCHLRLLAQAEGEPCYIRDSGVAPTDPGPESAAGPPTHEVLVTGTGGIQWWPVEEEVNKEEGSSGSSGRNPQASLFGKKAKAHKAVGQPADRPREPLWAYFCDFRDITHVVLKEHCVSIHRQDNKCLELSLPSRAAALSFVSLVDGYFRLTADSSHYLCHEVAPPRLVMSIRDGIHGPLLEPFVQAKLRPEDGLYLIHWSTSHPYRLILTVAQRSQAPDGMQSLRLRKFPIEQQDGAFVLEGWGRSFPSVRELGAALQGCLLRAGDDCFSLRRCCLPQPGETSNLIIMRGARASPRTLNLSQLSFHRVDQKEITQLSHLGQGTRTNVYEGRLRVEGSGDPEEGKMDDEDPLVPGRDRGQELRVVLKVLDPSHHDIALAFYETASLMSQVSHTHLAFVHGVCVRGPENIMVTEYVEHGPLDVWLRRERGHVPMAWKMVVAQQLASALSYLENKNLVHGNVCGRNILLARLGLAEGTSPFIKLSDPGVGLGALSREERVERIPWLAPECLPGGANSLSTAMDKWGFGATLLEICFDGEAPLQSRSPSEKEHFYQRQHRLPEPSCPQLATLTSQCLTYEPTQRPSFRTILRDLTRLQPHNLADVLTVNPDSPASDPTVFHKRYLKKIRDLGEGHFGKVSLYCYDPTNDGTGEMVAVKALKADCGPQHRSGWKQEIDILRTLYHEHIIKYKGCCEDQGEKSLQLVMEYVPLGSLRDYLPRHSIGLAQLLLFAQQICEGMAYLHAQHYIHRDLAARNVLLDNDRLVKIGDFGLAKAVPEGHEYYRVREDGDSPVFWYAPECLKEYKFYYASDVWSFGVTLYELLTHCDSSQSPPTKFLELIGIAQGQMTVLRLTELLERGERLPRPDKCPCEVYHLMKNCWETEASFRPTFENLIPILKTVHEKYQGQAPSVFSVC
Chain of JAK1 (P23458 whole entry): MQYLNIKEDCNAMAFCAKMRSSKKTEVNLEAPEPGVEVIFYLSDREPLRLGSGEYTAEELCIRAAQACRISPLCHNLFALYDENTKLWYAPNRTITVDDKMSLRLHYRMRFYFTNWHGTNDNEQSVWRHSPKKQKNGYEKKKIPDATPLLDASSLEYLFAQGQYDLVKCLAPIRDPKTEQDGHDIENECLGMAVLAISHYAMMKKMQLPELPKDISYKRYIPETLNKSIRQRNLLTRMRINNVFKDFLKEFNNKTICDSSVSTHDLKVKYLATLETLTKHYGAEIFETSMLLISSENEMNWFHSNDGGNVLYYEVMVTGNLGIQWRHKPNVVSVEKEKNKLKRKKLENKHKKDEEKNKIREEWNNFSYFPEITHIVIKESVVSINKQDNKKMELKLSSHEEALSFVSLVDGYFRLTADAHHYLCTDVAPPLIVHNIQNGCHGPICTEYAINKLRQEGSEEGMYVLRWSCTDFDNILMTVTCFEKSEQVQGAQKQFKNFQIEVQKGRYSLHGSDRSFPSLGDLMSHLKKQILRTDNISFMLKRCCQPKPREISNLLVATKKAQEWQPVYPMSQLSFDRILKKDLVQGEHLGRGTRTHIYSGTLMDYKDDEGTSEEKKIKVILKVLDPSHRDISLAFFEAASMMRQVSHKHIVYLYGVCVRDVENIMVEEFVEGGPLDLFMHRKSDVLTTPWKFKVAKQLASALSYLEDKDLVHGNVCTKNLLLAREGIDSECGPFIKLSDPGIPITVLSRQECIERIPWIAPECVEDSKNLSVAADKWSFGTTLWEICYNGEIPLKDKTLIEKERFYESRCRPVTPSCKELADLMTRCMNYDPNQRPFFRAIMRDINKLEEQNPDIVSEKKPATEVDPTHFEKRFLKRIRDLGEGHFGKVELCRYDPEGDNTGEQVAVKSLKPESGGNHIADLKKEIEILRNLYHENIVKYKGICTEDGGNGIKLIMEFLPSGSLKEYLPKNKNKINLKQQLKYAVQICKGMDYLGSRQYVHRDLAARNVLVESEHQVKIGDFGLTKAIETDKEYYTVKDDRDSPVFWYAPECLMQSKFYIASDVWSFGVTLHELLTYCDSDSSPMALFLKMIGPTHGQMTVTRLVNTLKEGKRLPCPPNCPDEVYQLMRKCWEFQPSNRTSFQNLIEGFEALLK
Chain of JAK2 (O60674 whole entry): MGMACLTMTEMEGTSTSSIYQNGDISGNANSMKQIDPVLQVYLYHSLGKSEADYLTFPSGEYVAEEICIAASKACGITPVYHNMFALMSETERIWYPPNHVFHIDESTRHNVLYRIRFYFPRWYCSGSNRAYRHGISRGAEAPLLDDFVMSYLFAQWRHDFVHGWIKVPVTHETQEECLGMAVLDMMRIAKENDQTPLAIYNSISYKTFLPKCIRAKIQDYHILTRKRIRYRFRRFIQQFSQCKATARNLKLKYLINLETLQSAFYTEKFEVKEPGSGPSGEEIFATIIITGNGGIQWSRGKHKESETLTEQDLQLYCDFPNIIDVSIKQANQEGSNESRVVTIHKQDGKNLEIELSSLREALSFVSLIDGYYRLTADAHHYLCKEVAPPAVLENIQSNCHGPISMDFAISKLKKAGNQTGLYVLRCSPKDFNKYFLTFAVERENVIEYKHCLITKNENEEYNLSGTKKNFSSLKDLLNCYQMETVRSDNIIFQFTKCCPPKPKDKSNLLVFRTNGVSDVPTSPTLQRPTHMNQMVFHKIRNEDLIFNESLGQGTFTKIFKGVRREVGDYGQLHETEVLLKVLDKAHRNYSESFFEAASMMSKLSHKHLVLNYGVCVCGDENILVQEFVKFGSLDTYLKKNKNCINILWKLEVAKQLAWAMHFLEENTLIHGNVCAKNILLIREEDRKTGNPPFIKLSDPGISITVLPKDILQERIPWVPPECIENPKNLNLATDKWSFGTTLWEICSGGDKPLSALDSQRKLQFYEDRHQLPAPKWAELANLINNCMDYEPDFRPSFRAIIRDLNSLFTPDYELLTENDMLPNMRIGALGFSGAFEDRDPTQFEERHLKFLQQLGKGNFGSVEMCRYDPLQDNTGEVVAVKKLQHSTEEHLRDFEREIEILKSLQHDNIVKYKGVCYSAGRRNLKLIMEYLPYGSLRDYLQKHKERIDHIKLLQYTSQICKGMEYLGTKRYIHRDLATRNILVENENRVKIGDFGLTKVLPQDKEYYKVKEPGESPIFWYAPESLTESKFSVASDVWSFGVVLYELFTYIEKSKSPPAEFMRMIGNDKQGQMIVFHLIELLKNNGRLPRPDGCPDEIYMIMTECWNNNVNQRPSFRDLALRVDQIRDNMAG

SMILES | IC50 (Tyk2) [µM] | IC50 (JAK2) [µM] | IC50 (JAK3) [µM] | IC50 (JAK1) [µM]
Cn1cc(Nc2nccc(-c3cnn(C4(CC#N)CN(S(=O)(=O)Cc5ccccc5)C4)c3)n2)cn1 [TDM-180795, 2-(1-(benzylsulfonyl)-3-(4-(2-((1-methyl-1H-pyrazol-4-yl)amino)pyrimidin-4-yl)-1H-pyrazol-1-yl)azetidinpyridin-3-yl)acetonitrile] | 0.1 to 1 | 0.1 to 1 | ≥ 10 | 1 to 10
Cn1cc(Nc2nccc(-c3cnn(C4CCN(C(=O)C5CC5(F)F)CC4)c3)n2)cn1 (stereo not shown) [TDM-180679, (2,2-difluorocyclopropyl)(4-(4-(2-((1-methyl-1H-pyrazol-4-yl)amino)pyrimidin-4-yl)-1H-pyrazol-1-yl)piperidin-1-yl)ketone] | ≥ 10 | ≥ 10 | ≥ 10 | ≥ 10
CCCC(=O)N1CC(n2cc(-c3ccnc(Nc4cnn(C)c4)c3)cn2)C1 [TDM-180640, 1-(3-(4-(2-((1-methyl-1H-pyrazol-4-yl)amino)pyridin-4-yl)-1H-pyrazol-1-yl)azetidin-1-yl)butan-1-one] | ≥ 10 | ≥ 10 | ≥ 10 | ≥ 10
CCS(=O)(=O)N1CCC(n2cc(-c3ccnc(Nc4cnn(C)c4)n3)cn2)C1 (stereo not shown) [TDM-180647, 4-(1-(1-(ethylsulfonyl)pyrrolidine-3-yl)-1H-pyrazol-4-yl)-N-(1-methyl-1H-pyrazol-4-yl)pyrimidin-2-amine] | ≥ 10 | 1 to 10 | 1 to 10 | ≥ 10
CC(=O)N1CC(n2cc(-c3ccnc(Nc4cnn(C)c4)c3)cn2)C1 [TDM-180645] | ≥ 10 | ≥ 10 | ≥ 10 | ≥ 10
Cn1cc(Nc2nccc(-c3cnn(C4CCN(C(=O)CO)CC4)c3)n2)cn1 [TDM-180681, 2-hydroxy-1-(4-(4-(2-((1-methyl-1H-pyrazol-4-yl)amino)pyrimidin-4-yl)-1H-pyrazol-1-yl)piperidin-1-yl)ethanone] | ≥ 10 | ≥ 10 | ≥ 10 | ≥ 10
CCC(=O)N1CCC(n2cc(-c3ccnc(Nc4cnn(C)c4)n3)cn2)CC1 [TDM-180676, 1-(4-(4-(2-((1-methyl-1H-pyrazol-4-yl)amino)pyrimidin-4-yl)-1H-pyrazol-1-yl)piperidin-1-yl)propan-1-one] | ≥ 10 | ≥ 10 | ≥ 10 | ≥ 10
Cn1cc(Nc2nccc(-c3cnn(C4(CC#N)CN(S(=O)(=O)C5CC5)C4)c3)n2)cn1 [TDM-180766, 2-(1-(cyclopropylsulfonyl)-3-(4-(2-((1-methyl-1H-pyrazol-4-yl)amino)pyrimidin-4-yl)-1H-pyrazol-1-yl)azetidinpyridin-3-yl)acetonitrile] | < 0.1 | < 0.1 | 1 to 10 | 0.1 to 1
Cn1cc(Nc2nccc(-c3cnn(C4CCN(C(=O)C5CC5)C4)c3)n2)cn1 (stereo not shown) [TDM-180652, cyclopropyl(3-(4-(2-((1-methyl-1H-pyrazol-4-yl)amino)pyrimidin-4-yl)-1H-pyrazol-1-yl)pyrrolidin-1-yl)ketone] | ≥ 10 | ≥ 10 | ≥ 10 | ≥ 10
Cn1cc(Nc2nccc(-c3cnn(C4(CC#N)CN(S(=O)(=O)C5CCOCC5)C4)c3)n2)cn1 [TDM-180797, 2-(3-(4-(2-((1-methyl-1H-pyrazol-4-yl)amino)pyrimidin-4-yl)-1H-pyrazol-1-yl)-1-((tetrahydro-2H-pyran-4-yl)sulfonyl)azetidin-3-yl)acetonitrile] | 0.1 to 1 | 0.1 to 1 | ≥ 10 | 0.1 to 1
